Measurements as given in PMC9354705, “Characterization of TR‐107, a novel chemical activator of the human mitochondrial protease ClpP” (Pharmacology Research & Perspectives, 2022).

System: MDA‐MB‐231 and SUM159 cells
Assay: Immunoblotting for mitochondrial proteins
Assay type: cell-based, human
Description: Cell lysates were clarified and immunoblotted as described earlier.[45] Membranes were incubated with primary antibodies (Appendix S1) diluted 1:1000 in 1% fish gelatin (Sigma‐Aldrich, G7041)/TBST overnight at 4°C, removed, washed 3 × 5 min in TBST, and placed in their respective 2° antibodies (1:10 000 dilution in 5% milk/TBST) for 1 h. […] Acquired images were processed/quantified using Image Lab software (BioRad) or Image Studio Lite (LI‐COR).

[1] = 100 nM TR‐107, 150 nM TR‐57, or 10 μM ONC201

N#Cc1cccc(CN2CCc3ncn(Cc4ccc(Cl)cc4)c(=O)c3C2)c1 [TR‐107]
TUFM and TFAM protein levels by 24 h [1]: complete or near‐complete loss | time at which TUFM and TFAM protein levels began to decline [1]: ~ 6 h | HSP60 levels (MDA‐MB‐231 cells, 100 nM): significantly reduced in a time‐dependent manner
